Test results as given in patent publication US20080306124A1, “Polycyclic Oxadiazoles or I Soxazoles and Their Use as Sip Receptor Ligands” (priority 2005, published 2008).

What follows are compounds tested against T1, S1P1 (EDG-1) receptor (Homo sapiens, UniProt P21453) (assay: S1P1 (EDG-1) GTP [γ-35S] binding assay, membranes from CHO cells). Details: membranes of CHO cells expressing human EDG-1.
T1 construct: expressed in transfected cells
T1 sequence (P21453 whole entry): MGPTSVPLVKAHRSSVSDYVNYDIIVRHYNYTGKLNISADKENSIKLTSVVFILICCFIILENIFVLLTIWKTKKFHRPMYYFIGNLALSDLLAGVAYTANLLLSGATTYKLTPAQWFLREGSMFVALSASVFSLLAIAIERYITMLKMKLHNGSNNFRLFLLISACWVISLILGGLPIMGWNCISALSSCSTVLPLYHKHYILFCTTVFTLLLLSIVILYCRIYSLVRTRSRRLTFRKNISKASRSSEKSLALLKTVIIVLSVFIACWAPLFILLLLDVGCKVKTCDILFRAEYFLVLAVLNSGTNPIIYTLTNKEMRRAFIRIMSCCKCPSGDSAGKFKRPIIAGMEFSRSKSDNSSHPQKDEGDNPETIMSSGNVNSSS
Assay type: biochemical
Procedure: A. In vitro: GPCR Activation Assay Measuring GTP [γ-^35S] Binding to Membranes Prepared from CHO Cells Expressing Human EDG Receptors
S1P1 (EDG-1) GTP [γ-^35S] binding assay: Homogenized membranes are prepared from CHO cell clones stably expressing a human EDG-1 N-terminal c-myc tag. Cells are grown in suspension in two 850 cm^2 roller bottles for three or fours days before harvesting. The cells are centrifuged down, washed once with cold PBS, and resuspended in ≦20 ml of Buffer A (20 mM HEPES, pH 7.4, […], EDTA-free complete protease inhibitor cocktail [1 tablet/25 ml]). The cell suspension is homogenized on ice, using a Polytron homogenizer at 30000 rpm at three intervals of 15 seconds each. The homogenate is first centrifuged at 2000 rpm on a tabletop low speed centrifuge for 10 minutes. The supernatant, after passing through a cell strainer, is then re-centrifuged at 50,000×g for 25 minutes at 4° C. The pellet is resuspended into buffer B (15% glycerol, 20 mM HEPES, pH 7.4, 0.1 mM EDTA, EDTA-free complete protease inhibitor cocktail [1 tablet/10 ml]). Protein concentration of the preparation is determined using the BCA Protein Assay kit (Pierce) using BSA as standard. The membranes are aliquoted and kept frozen at −80° C.
Solutions of test compounds ranging from 10 mM to 0.01 nM are prepared in DMSO. S1P is diluted in 4% BSA solution as positive controls. The desired amount of membrane preparation is diluted with ice-cold assay buffer (20 mM HEPES, pH 7.4, 100 mM NaCl, 10 mM MgCl2, 0.1% Fatty acid-free BSA, 5 μM GDP) and vortexed well. 2 μl or less of compound is distributed into each well of a round-bottom 96-well polystyrene assay plate, followed by addition of 100 µl of diluted membranes ([…]/well) and kept on ice until the addition of hot GTPγS. [^35S]-GTPγS is diluted 1:1000 (v/v) with cold assay buffer and 100 μl is added into each well. The reaction is carried out at room temperature for 90 minutes before the membranes are harvested onto Perkin-Elmer Unifilter® GF/B-96 filter plate using a Packard Filtermate Harvester. After several washes with wash buffer (20 mM HEPES, pH 7.4, 100 mM NaCl, 10 mM MgCl2), and a rinse with 95% ethanol, the filter is dried in a 37° C. oven for 30 minutes. MicroScint-20 is added and the plate sealed for scintillation counting on TopCount. EC50 values are obtained by fitting the GTP [γ-^35S] binding curves (raw data) with the dose response curve-fitting tool of GraphPad Prism. Six or twelve different concentrations are used to generate a concentration response curve (using three data points per concentration).
Compound `CCc1cc(-c2noc(-c3ccc(-c4ccccc4F)c(C(F)(F)F)c3)n2)ccc1S(N)(=O)=O` [Example 194, 2-Ethyl-4-[5-(2′-fluoro-2-trifluoromethyl-biphenyl-4-yl)-[1,2,4]oxadiazol-3-yl]-benzenesulfonamide] has an EC50 of less than 1 nM.
`CCc1cc(-c2noc(-c3ccc(C4CCCCC4)c(C(F)(F)F)c3)n2)ccc1S(N)(=O)=O` [Example 196, 4-[5-(4-Cyclohexyl-3-trifluoromethyl-phenyl)-[1,2,4]oxadiazol-3-yl]-2-ethyl-benzenesulfonamide] gave an EC50 of less than 1 nM.
With `NS(=O)(=O)c1ccc(-c2noc(-c3ccc(OC4CCCC4)c(C(F)(F)F)c3)n2)cc1` [Example 145] the EC50 was less than 1 nM.
`O=C(O)CCNS(=O)(=O)c1ccc(-c2noc(-c3ccc(Oc4cccc(F)c4)c(C(F)(F)F)c3)n2)cc1` [Example 54] was tested, and the EC50 was less than 1 nM.
Work on `CCc1ccccc1-c1ccc(-c2nc(-c3ccc(S(=O)(=O)NCC(=O)O)cc3)no2)cc1C(F)(F)F` [Example 45] yielded an EC50 of less than 1 nM.
